Source: patent US6544989B2, “Benzazoles: benzoxazole, benzthiazole and benzimidazole derivatives” (Syngenta Limited, priority 1998, dated 2003)

What was measured:
Septoria nodorum = experiment: Fungicidal test, Septoria nodorum (LEPTNO) on wheat, PRCO; assay type: in vivo; conditions: METHOD 2 (unbanded)
Puccinia recondita = experiment: Fungicidal test, Puccinia recondita (PUCCRT) on wheat, PRCO; assay type: in vivo; conditions: METHOD 2 (unbanded)
[1] = tested on: Erysiphe graminis f.sp. tritici; experiment: Fungicidal test, Erysiphe graminis f.sp. tritici (ERYSGT) on wheat, PRCO; assay type: in vivo; conditions: 1 d Prot/Foir; METHOD 2 (unbanded)
Meloidogyne incognita = experiment: Nematode test, J2 infective juveniles of Meloidogyne incognita, mortality; conditions: 12.5 ppm; J2 infective juveniles suspended in solution; mortality after three days
[2] = tested on: Phytophthora infestans lycopersici; assay type: in vivo; conditions: METHOD 2 (unbanded)
Venturia inaequalis = experiment: Fungicidal test, Venturia inaequalis (VENTIN) on apples, PRCO; assay type: in vivo; conditions: METHOD 2 (unbanded)
Pyricularia oryzae = assay type: in vivo; conditions: METHOD 2 (unbanded)
Musca domestica = conditions: 500 ppm by weight; knockdown assessed 15 minutes after treatment
Description: The activities of individual compounds of formula (I) were determined using a variety of pests. With the exception of nematodes, the pests were treated with a liquid composition containing 500 parts per million (ppm) by weight of a compound unless otherwise stated. Each composition was made by dissolving the compound in an acetone and ethanol (50:50 by volume) mixture and diluting the solution with water containing 0.05% by volume of a wetting agent, SYNPERONIC NP8, until the liquid composition contained the required concentration of the compound.
The test procedure adopted with regard to each pest, except nematodes, was essentially the same and composed supporting a number of the pests on a medium which was usually a substrate, a host plant or a foodstuff on which the pests feed, and treating either or both the medium and the pests with a composition. Pest mortality was assessed usually between three and five days after treatment Knockdown of housefly (Musca domestica) was assessed 15 minutes after treatment

Uncinula necator = experiment: Fungicidal test, Uncinula necator (UNCINE) on vines, PRCO; assay type: in vivo; conditions: METHOD 2 (unbanded)

Row | SMILES | LEPTNO 1 d Prot/Foir PRCO (Septoria nodorum) | PUCCRT 1 d Prot/Foir PRCO (Puccinia recondita) | ERYSGT 1 d Prot/Foir PRCO [1] | MELGIN = Meloidogyne incognita, grading of mortality (score) (Meloidogyne incognita) | PHYTIN 1 d Prot/Foir PRCO [2] | VENTIN 1 d Prot/Foir PRCO (Venturia inaequalis) | PYRIOR 1 d Prot/Foir PRCO (Pyricularia oryzae) | MUSCDO AC = Musca domestica (knockdown), score (Musca domestica) | UNCINE 1 d Prot/Foir PRCO (Uncinula necator)
1 | Cc1nc2ccc(CC(=O)Nc3snc(C)c3Cl)cc2[nH]1 [2(A43)] | −3 | 7 | 20 | 5 (5 indicates 40-79% mortality) | 18 | 14 | 48 | 0 (0 indicates less than 40% mortality) | 11
2 | Cc1nsc(NC(=O)Cc2ccc3oc(CC(C)(C)C)nc3c2)c1C#N [15(A5)] | −2 | 84 | 15 | 0 (0 indicates less than 40% mortality) | 45 | 3 | 81 |  | 83
3 | Cc1nsc(NC(=O)Cc2ccc3oc(-c4c(Cl)cc(C(F)(F)F)cc4Cl)nc3c2)c1Cl [244(A3)] | −2 | 84 | 3 | 0 (0 indicates less than 40% mortality) |  | 45 | −2 |  | 
4 | CCN(C)c1nc2cc(CC(=O)Nc3snc(C)c3Cl)ccc2o1 [180(A3)] | 14 | 69 | 29 | 0 (0 indicates less than 40% mortality) |  | 0 | 42 | 0 (0 indicates less than 40% mortality) | 42
5 | Cc1nc2cc(CC(=O)Nc3snc(C)c3Br)ccc2o1 [2(A4)] | −12 | 100 | 97 | 0 (0 indicates less than 40% mortality) | 100 | 92 | 99 | 5 (5 indicates 40-79% mortality) | 90
6 | COCc1nc2cc(CC(=O)Nc3snc(C)c3Cl)ccc2o1 [130(A3)] | 21 | 100 | 87 | 0 (0 indicates less than 40% mortality) |  | 60 | 93 |  | 86
7 | Cc1nsc(NC(=O)Cc2ccc3oc(-c4c(F)c(F)c(F)c(F)c4F)nc3c2)c1Cl [287(A3)] | −2 | 94 | 34 | 0 (0 indicates less than 40% mortality) | 3 | 8 | 19 |  | 20
8 | CCCc1nc2ccc(CC(=O)Nc3snc(C)c3Cl)cc2[nH]1 [4(A43)] | 0 | 31 |  |  | 0 |  | 38 |  | 35
9 | Cc1nsc(NC(=O)Cc2ccc3oc(C4CC4)nc3c2)c1Cl [21(A3)] | 14 | 100 | 35 | 0 (0 indicates less than 40% mortality) |  | 50 | 92 |  | 44
10 | Cc1nsc(N(C(=O)Cc2ccc3oc(CC(C)(C)C)nc3c2)C(C)C)c1Cl [15(N3)] | −2 | 3 | 8 | 0 (0 indicates less than 40% mortality) | 3 | 3 | 13 | 0 (0 indicates less than 40% mortality) | 87
11 | COc1nc2cc(CC(=O)Nc3snc(C)c3Cl)ccc2o1 [203(A3)] | −3 | 100 | 98 | 0 (0 indicates less than 40% mortality) | 85 | 65 | 96 | 9 (9 indicates 80-100% mortality) | 69
12 | CCC(Cl)c1nc2cc(CC(=O)Nc3snc(C)c3Cl)ccc2o1 (racemic) [95(A3)] | 8 | 100 | 68 | 0 (0 indicates less than 40% mortality) |  | 98 | 96 |  | 100
13 | Cc1nsc(NC(=O)Cc2ccc3oc(Cc4c(F)c(F)c(F)c(F)c4F)nc3c2)c1Cl [239(A3)] |  | 3 | 23 | 0 (0 indicates less than 40% mortality) |  | 5 | 11 |  | 51
14 | CCCc1nc2cc(CC(=O)Nc3snc(C)c3Cl)ccc2s1 [4(A13)] | 20 | 100 | 100 | 0 (0 indicates less than 40% mortality) |  | 55 | 100 | 9 (9 indicates 80-100% mortality) | 100
15 | Cc1nsc(NC(=O)Cc2ccc3oc(C4CCCCC4)nc3c2)c1Cl [35((A3)] |  |  |  |  |  | 70 | 98 |  | 100
16 | Cc1nsc(NC(=O)Cc2ccc3oc(CC(C)(C)C)nc3c2)c1Br [15(A4)] | 19 | 99 | 91 | 0 (0 indicates less than 40% mortality) | 100 | 54 | 98 | 9 (9 indicates 80-100% mortality) | 100
17 | Cc1nsc(N(CC(F)(F)F)C(=O)Cc2ccc3oc(CC(C)(C)C)nc3c2)c1Cl [15(H3)] | 2 | 29 | 16 | 0 (0 indicates less than 40% mortality) |  | 0 | 46 |  | 63
18 | Cc1nsc(NC(=O)Cc2ccc3nc(C(C)(C)C)[nH]c3c2)c1Cl [9(A43)] | −4 | 25 | 7 | 0 (0 indicates less than 40% mortality) | 0 | 38 | 26 | 0 (0 indicates less than 40% mortality) | 7
19 | Cc1nsc(NC(=O)Cc2ccc3oc(C(C)C#N)nc3c2)c1Cl (racemic) [115(A3)] | 8 | 45 | −3 | 0 (0 indicates less than 40% mortality) |  | 15 | 5 |  | 2
20 | Cc1nsc(NC(=O)Cc2ccc3oc(C(F)(F)C(F)F)nc3c2)c1Cl [79(A3)] | 14 | 100 | 100 | 0 (0 indicates less than 40% mortality) |  | 88 | 98 |  | 90
21 | Cc1nsc(NC(=O)Cc2ccc3oc(C(F)(F)F)nc3c2)c1Cl [75(A3)] | 27 | 94 | 90 | 0 (0 indicates less than 40% mortality) |  | 15 | 78 |  | 53
22 | Cc1nsc(NC(=O)Cc2ccc3oc(-c4ccncc4)nc3c2)c1Cl [339((A3)] |  |  |  |  |  | 8 | 33 |  | 26
23 | CCc1nsc(NC(=O)Cc2ccc3oc(CC(C)(C)C)nc3c2)c1Cl [15(A8)] | −2 |  | 80 | 0 (0 indicates less than 40% mortality) | 99 | 24 | 81 |  | 100
24 | Cc1nc2cc(CC(=O)Nc3snc(C)c3C#N)ccc2o1 [2(A5)] | −2 | 28 | 18 | 5 (5 indicates 40-79% mortality) | 19 | 19 | 31 |  | 3
25 | CCc1nsc(NC(=O)Cc2ccc3oc(C)nc3c2)c1Cl [2(A8)] | 9 | 100 | 54 | 0 (0 indicates less than 40% mortality) | 74 | 8 | 75 |  | 74
